The text below walks through data of patent US20250041279A1, “THERAPEUTIC MEDICINE FOR HEART DISEASE OR SKELETAL MUSCLE DISEASE” (SHIONOGI & CO., LTD., priority 2021, published 2025).

Where two headings read alike, the source gives them in different places. Bounds are passed on as bounds.

One data set concerns the target recombinant human ACC1 (Homo sapiens (Human), UniProt Q13085). Briefly: Measurement of inhibitory activity of human ACC1 (MALDI-TOF MS). The class given is biochemical. Particulars: read-out: IC50 hACC1. The source says: A cDNA encoding human ACC1 protein (1 amino acid residue to 2346 amino acid residues from the N-terminus) was cloned from a human liver cDNA library (BioChain Institute Inc.), myc tag and His-tag sequences were introduced at the 3′ end, and then inserted into pIEXBAC3 (Novagen). A recombinant baculovirus was produced in accordance with the protocol for Flash BACGOLD (Oxford Expression Technologies Ltd.), and Sf-9 cells were infected therewith to express human ACC1 protein. The recovered cells were crushed, filtered through a filter, and then subjected to Ni affinity chromatography and anion exchange chromatography. Fractions containing human ACC1 protein were collected to obtain recombinant human ACC1.
The recombinant human ACC1 and the recombinant human ACC2 obtained from the above Preparation Examples were preincubated in an assay buffer (50 mM HEPES-KOH (pH 7.4), 10 mM magnesium chloride, 6 to 10 mM potassium citrate, 4 mM glutathione reduced form, and 1.5 mg/ml bovine serum albumin) for 1 hour. Then, 5 μL of the pre-incubated enzyme solution and 5 μL of a substrate solution (50 mM HEPES-KOH (pH 7.4), 1 mM ATP, 0.8 mM acetyl-CoA, and 25 to 50 mM potassium bicarbonate) were added to a 384-well microplate into which 0.2 μl of each of solutions of the compound of the present invention (DMSO had been dispensed, and the mixture was centrifuged and shaken, and then incubated in a wet box at room temperature for 1 to 3 hours. After incubation, the enzymatic reaction was stopped by addition of EDTA, and then the sample was co-crystallized with an α-cyano-4-hydroxy cinnamic acid (CHCA) matrix on a MALDI target plate, and measurement was performed in a reflector negative mode using a matrix-assisted laser desorption ionization-time-of-flight mass spectrometer (MALDI-TOF MS). Deprotonated ions of the substrate acetyl-CoA (AcCoA) and the reaction product malonyl-CoA (MalCoA) were detected, and the intensity of each signal was used to calculate a conversion rate to malonyl-CoA or succinyl-CoA, i.e., intensity of [MalCoA-H]—/(intensity of [MalCoA-H]-+intensity of [AcCoA.H].). […] The potassium citrate concentration in the assay buffer, the potassium bicarbonate concentration in the substrate solution, and the incubation time were adjusted within the above concentrations or reaction times for each lot of the enzyme to be used.

Data set [1] in a line: Metabolic stability test, human liver microsomes. Particulars: 37° C., 30 minutes, NADPH. The class given is in vitro ADME. The method, then:
Commercially available pooled human liver microsomes were reacted with the compound of the present invention for a given time. A residual rate was calculated by comparison between the reacted sample and the unreacted sample to evaluate a degree at which the compound of the present invention is metabolized in the liver.
The compound was reacted at 37° C. for 0 minutes or 30 minutes in the presence of 1 mmol/L NADPH in 0.2 mL of a buffer (50 mmol/L Tris-HCl pH 7.4, 150 mmol/L potassium chloride, and 10 mmol/L magnesium chloride) containing 0.5 mg protein/mL of the human liver microsomes (oxidative reaction). After the reaction, 50 μL of the reaction solution was added to 100 μL of a solution of methanol/acetonitrile=1/1 (v/v) and mixed, and the mixture was centrifuged at 3000 rpm for 15 minutes. The compound of the present invention in the centrifuged supernatant was quantified by LC/MS/MS or solid-phase extraction (SPE)/MS. The amount of the compound of the present invention remained after the reaction was calculated with the amount of the compound at 0 minutes of the reaction defined as 100%.
A general note: Liver microsomes are a subcellular fraction often used to study metabolism.

Data set [2] can be described thus: Metabolic stability test, rat. The data set is classed as in vitro ADME. The note with it: 30 minutes.
The target of the next data set is recombinant human ACC2 (Homo sapiens (Human), UniProt O00763). The data set can be described thus: Measurement of inhibitory activity of human ACC2 (MALDI-TOF MS). Particulars: read-out: IC50 hACC2. The class given is biochemical. From the text:
A cDNA encoding human ACC2 protein (27 amino acid residues to 2458 amino acid residues from the N-terminus) was cloned from a human kidney cDNA library (Clontech Laboratories, Inc.), a His-tag sequence was introduced at the 5′ end, and then inserted into pFastBac1 (Invitrogen). A recombinant baculovirus was produced in accordance with the protocol for a Bac-to-Bac baculovirus expression system (Invitrogen), and Sf-9 cells were infected therewith to express human ACC2 protein. The recovered cells were crushed, filtered through a filter, and then subjected to Ni affinity chromatography and anion exchange chromatography. Fractions containing human ACC2 protein were collected to obtain recombinant human ACC2.
The recombinant human ACC1 and the recombinant human ACC2 obtained from the above Preparation Examples were preincubated in an assay buffer (50 mM HEPES-KOH (pH 7.4), 10 mM magnesium chloride, 6 to 10 mM potassium citrate, 4 mM glutathione reduced form, and 1.5 mg/ml bovine serum albumin) for 1 hour. […] Deprotonated ions of the substrate acetyl-CoA (AcCoA) and the reaction product malonyl-CoA (MalCoA) were detected, and the intensity of each signal was used to calculate a conversion rate to malonyl-CoA or succinyl-CoA, i.e., intensity of [MalCoA-H]—/(intensity of [MalCoA-H]-+intensity of [AcCoA.H].). […] The potassium citrate concentration in the assay buffer, the potassium bicarbonate concentration in the substrate solution, and the incubation time were adjusted within the above concentrations or reaction times for each lot of the enzyme to be used.

The test system of a further data set is NAFLD patients. Particulars: cited from earlier work.
The subject of a further data set is healthy subjects. The note with it: repeated administration to healthy subjects; cited from earlier work.

Chain of recombinant human ACC2 (O00763 27-2458): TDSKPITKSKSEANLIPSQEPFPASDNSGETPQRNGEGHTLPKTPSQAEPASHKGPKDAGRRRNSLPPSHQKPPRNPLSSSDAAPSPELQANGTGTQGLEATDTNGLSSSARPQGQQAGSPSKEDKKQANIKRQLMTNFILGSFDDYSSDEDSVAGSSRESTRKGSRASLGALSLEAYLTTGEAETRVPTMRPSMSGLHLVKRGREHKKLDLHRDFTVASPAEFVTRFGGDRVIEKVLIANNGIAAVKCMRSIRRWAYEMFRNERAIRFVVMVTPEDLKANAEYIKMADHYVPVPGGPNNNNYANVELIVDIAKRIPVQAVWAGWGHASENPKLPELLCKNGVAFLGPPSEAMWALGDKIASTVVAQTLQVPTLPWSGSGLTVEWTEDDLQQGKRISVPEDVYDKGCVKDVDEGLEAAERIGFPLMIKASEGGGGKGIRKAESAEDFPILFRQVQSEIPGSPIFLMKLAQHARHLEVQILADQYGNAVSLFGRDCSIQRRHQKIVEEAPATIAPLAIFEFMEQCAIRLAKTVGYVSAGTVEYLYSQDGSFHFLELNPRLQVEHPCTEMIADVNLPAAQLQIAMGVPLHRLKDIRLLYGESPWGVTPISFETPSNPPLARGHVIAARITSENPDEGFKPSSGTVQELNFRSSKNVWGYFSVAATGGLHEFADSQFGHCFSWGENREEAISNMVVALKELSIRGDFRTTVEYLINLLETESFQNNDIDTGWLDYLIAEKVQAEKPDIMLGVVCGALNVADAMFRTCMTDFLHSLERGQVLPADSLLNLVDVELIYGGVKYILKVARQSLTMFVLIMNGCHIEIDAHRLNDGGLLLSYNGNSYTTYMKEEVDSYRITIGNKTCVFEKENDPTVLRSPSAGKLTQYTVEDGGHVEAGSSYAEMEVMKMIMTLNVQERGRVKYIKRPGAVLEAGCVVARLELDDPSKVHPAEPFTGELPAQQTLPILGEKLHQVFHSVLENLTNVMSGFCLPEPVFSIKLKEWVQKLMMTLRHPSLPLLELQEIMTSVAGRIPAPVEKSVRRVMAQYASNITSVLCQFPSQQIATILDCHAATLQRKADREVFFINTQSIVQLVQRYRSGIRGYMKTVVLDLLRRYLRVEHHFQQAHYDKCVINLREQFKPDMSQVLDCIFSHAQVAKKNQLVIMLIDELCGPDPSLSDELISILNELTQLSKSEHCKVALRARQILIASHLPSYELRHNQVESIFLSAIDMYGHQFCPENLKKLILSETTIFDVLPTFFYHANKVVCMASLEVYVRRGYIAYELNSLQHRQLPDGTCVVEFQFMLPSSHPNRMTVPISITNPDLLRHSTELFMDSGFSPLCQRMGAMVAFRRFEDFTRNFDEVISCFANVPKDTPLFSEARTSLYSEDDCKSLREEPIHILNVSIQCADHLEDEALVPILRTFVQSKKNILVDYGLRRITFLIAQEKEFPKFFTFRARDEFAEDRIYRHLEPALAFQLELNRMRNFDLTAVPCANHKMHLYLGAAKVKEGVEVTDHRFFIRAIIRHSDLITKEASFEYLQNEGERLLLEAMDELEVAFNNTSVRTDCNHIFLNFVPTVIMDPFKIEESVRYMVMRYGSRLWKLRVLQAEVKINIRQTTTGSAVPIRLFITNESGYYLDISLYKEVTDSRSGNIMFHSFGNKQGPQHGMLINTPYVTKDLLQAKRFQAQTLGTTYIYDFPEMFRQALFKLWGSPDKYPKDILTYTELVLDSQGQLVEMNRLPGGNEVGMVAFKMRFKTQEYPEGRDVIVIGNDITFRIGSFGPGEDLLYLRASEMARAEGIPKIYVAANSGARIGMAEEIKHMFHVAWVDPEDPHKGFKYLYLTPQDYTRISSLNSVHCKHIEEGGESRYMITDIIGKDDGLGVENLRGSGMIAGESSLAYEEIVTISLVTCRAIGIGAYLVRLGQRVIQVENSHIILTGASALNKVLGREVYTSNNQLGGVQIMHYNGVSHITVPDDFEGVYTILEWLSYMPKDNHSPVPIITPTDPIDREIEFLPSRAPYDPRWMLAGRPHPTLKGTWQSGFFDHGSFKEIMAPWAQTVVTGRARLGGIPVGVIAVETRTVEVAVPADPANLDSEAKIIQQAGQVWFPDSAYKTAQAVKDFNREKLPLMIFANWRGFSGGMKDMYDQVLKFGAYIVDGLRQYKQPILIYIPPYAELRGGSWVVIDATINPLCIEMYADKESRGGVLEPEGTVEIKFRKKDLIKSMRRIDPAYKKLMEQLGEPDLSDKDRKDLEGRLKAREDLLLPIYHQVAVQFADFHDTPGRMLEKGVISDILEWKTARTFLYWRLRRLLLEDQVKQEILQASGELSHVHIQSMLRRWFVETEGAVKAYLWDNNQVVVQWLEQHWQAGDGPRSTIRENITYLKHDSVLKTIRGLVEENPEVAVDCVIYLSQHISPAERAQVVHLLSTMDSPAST

Regarding `CC(=O)N[C@@H](C)COC1CCC(Oc2nc3c(F)cc(OC4CCC4)cc3n2C)CC1` (stereo partly drawn) [Compound I-1], at recombinant human ACC1, the IC50 amounted to 320 nM.

Take `CC(=O)N[C@@H](C)COC1CCC(Oc2nc3c(Cl)cc(OC4CC4)cc3n2C)CC1` (stereo partly drawn) [Compound I-3]: the “Remaining amount of compound, Human” value in data set [1] is recorded as 80.3%. On recombinant human ACC1, the IC50 is 2800 nM. Moreover, the “Remaining amount of compound, Rat” value in data set [2] is reported as 82.6%.

As for `CC(=O)N[C@@H](CF)COC1CCC(Oc2nc3c(F)cc(OC4CC4)cc3n2C)CC1` (stereo partly drawn) [Compound I-4], the IC50 at recombinant human ACC2 was 4.7 nM; at recombinant human ACC1, 2700 nM. The “Remaining amount of compound, Human” value in data set [1] turned out to be 93.4%. In addition, in data set [2], the “Remaining amount of compound, Rat” value is 87.3%.

In the case of `Cn1c(OC2CCC(OC[C@H](CF)NC(N)=O)CC2)nc2c(F)cc(OC3CC3)cc21` (stereo partly drawn) [Compound I-5], the results for the 50% inhibitory concentration (IC50) at recombinant human ACC2 and at recombinant human ACC1 were 8.9 nM and 6900 nM, respectively. Moreover, the “Remaining amount of compound, Human” value in data set [1] was 98.9%. Moreover, the “Remaining amount of compound, Rat” value in data set [2] is given as 83.4%.

As for `CC(=O)N[C@@H](C)C(F)(F)C[C@H]1CCC(Oc2nc3c(F)cc(OCC(F)F)c(F)c3n2C)CO1` (stereo partly drawn) [Compound I-7], the IC50 at recombinant human ACC2 is 180 nM; at recombinant human ACC1, 25000 nM. Further, the “Remaining amount of compound, Human” value in data set [1] came to 89.1%. Further, the “Remaining amount of compound, Rat” value in data set [2] stood at 74.7%.

As to `C[C@@H](COC1CCC(Oc2nc3c(Cl)cc(OC4CC4)cc3n2C)CC1)NC(N)=O` (stereo partly drawn) [Compound I-8], the IC50 amounted to 17 nM at recombinant human ACC2 and 6200 nM on recombinant human ACC1. In data set [1], the “Remaining amount of compound, Human” value worked out at 83.6%. Further, the “Remaining amount of compound, Rat” value in data set [2] stood at 85.4%.

`CC(=O)N[C@@H](C)CC(F)(F)[C@@H]1CCC(Oc2nc3c(F)cc(OCC(F)F)c(F)c3n2C)CO1` (stereo partly drawn) [Compound I-10]: the IC50 is 89 nM on recombinant human ACC2 and over 100000 nM on recombinant human ACC1.

Regarding `C[C@@H](CCC1OCC(Oc2nc3c(F)cc(OCC(F)F)c(F)c3n2C)CO1)NC(N)=O` (stereo partly drawn) [Compound I-11], the figures for the IC50 at recombinant human ACC2 and at recombinant human ACC1 were 9.6 nM and 7000 nM, respectively. For the same compound, the “Remaining amount of compound, Human” value in data set [1] is given as 95.8%. In data set [2], the “Remaining amount of compound, Rat” value is recorded as 94.5%.

Regarding `CC(=O)N[C@@H](C)CCC1CCC(Oc2nc3c(F)cc(OC4CC4)cc3n2C)CC1` (stereo partly drawn) [Compound I-15], the IC50 stood at 3.8 nM on recombinant human ACC2 and 1700 nM on recombinant human ACC1. The “Remaining amount of compound, Human” value in data set [1] is 80.2%. For the same compound, the “Remaining amount of compound, Rat” value in data set [2] is listed as 76.2%.

For `COc1cc(C(=O)N2CCC3(CC2)CC(=O)c2cc(-c4cncc(C(=O)O)c4)ccc2O3)cc2c1c(C)cn2C1CC1` [MK-4074], the Plasma triglyceride concentration result in the data set on NAFLD patients is “elevated”.

Take `Cc1nc2ccc(C(=O)N3CCC4(CC3)CC(=O)c3c(cnn3C(C)C)C4)cc2[nH]1` [PF-05175157]: the platelet concentration result in the data set on healthy subjects is “reduced”.

With `COc1ccccc1[C@H](Cn1c(=O)n(C(C)(C)C(=O)O)c(=O)c2c(C)c(-c3ncco3)sc21)OC1CCOCC1` [firsocostat], in the data set on NAFLD patients (phase II study over 12 weeks), the Plasma triglyceride concentration result was “elevated”.

Usually IC50 stands for the midpoint of a concentration-inhibition curve.
